Reference: PMC11413854, “Reversible Control of Native GluN2B-Containing NMDA Receptors with Visible Light” (ACS Chemical Neuroscience, 2024)
“And” between values parts separate entries of the source, which are not always exact repeats. Equal values may be shown once. Read-outs that look alike come from different tables or passages of the source.

Target: T1, GluN1/GluN2B receptors (UniProt P35439+Q01097)
T1 construct: expressed in transfected cells; host or cells: HEK-293 cells (ECACC, Cat #96121229)
T1 sequence (Q01097 27-1482, other chains not shown): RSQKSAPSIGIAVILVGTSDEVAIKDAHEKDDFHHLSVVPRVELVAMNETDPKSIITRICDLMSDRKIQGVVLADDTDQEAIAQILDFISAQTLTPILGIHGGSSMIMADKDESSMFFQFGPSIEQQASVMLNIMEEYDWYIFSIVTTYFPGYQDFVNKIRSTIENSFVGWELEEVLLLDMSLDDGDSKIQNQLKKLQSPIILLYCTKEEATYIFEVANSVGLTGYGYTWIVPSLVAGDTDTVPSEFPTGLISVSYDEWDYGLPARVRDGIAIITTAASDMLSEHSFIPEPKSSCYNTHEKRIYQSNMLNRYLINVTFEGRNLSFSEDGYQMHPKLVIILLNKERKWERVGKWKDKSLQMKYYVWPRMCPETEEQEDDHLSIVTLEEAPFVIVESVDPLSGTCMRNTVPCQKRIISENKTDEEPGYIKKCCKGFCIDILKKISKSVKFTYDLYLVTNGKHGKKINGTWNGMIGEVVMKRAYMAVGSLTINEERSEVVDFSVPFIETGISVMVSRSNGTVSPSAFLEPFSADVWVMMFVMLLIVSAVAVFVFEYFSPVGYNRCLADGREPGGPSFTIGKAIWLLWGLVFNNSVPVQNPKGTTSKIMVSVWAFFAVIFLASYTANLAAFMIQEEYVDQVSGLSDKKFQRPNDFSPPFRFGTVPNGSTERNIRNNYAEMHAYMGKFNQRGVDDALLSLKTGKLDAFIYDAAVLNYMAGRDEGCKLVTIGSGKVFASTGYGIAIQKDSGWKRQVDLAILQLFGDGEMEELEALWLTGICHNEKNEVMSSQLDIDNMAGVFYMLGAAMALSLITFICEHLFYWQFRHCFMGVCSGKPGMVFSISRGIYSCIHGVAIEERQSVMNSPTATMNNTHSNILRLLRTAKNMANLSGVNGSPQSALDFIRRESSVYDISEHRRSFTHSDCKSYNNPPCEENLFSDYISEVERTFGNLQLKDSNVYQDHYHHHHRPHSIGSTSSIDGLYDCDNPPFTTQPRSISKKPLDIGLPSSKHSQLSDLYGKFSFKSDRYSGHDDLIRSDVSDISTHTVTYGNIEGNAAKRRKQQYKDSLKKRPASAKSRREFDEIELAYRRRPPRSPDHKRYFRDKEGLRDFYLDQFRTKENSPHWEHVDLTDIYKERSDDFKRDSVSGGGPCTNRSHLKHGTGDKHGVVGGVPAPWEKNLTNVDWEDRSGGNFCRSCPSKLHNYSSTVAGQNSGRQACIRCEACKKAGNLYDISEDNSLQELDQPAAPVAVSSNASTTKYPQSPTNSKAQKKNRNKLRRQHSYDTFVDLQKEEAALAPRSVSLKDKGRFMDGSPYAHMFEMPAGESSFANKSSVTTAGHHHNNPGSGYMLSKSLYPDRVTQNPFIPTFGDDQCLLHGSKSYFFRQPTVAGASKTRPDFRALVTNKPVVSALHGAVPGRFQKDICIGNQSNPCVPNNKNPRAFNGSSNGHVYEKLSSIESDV
Experiment: Whole-cell patch-clamp and photomodulation in HEK cells expressing GluN1/GluN2B
Format: cell-based, rat GluN1, mouse GluN2B
Conditions: for inhibition of GluN1/GluN2B currents in HEK cells: 2 µM; for inhibition at 2 µM: HEK293, 2 µM, read-out: inhibition of GluN1/GluN2B currents in HEK cells
Description: Now that we have established the photodependence of OptoNAM-3 action, we tested whether this compound could be used to perform real-time modulation of NMDAR activity with light. To answer this question, we turned to mammalian cells, whose transparency allows homogeneous illumination of all membrane-expressed NMDARs. OptoNAM-3 was perfused together with agonists glutamate and glycine on HEK cells expressing GluN1/GluN2B receptors. […] OptoNAM-3 thus allows real-time and reversible inhibition of GluN1/GluN2B activity with light. By plotting the effect of different concentrations of OptoNAM-3 in the dark and during UV illumination, we observed a 20-fold UV-induced shift of OptoNAM-3 IC50 compared to the dark condition (Figure 4C). […] The stronger photodependence of OptoNAM-3 action on HEK cells might stem either from differences between cellular expression systems (Xenopus oocytes vs HEK cells) or from the different irradiation contexts (in solution for experiments in Xenopus oocytes and in a cellular context for HEK cells) (see below).
HEK293 cells were used for heterologous expression of recombinant NMDA receptors studies using whole-cell patch-clamp. Wild-type NMDARs were expressed in HEK-293 cells (obtained from ECACC, Cat #96121229). HEK cells were cultured in DMEM + glutamax medium supplemented with 10% fetal bovine calf serum and 1% penicillin/streptomycin (5000 U/mL) and cultured under standard cell culture conditions (5% CO2, 37 °C). Transfections were performed using polyethylenimine (PEI) in a cDNA/PEI ratio of 1:3 (v/v). Cells were cotransfected with a DNA mixture containing plasmids encoding wild-type GluN1, wild-type GluN2A or GluN2B, and eGFP. The total amount of DNA was 1.0 μg per 500 μL of transfected medium containing […] diameter coverslip, and the mass ratio of GluN1:GluN2B:eGFP was 1:2:1 (1:1:1 for GluN2A). 150 μM of D-APV was added to the culture medium after transfection.
Receptor functionality, OptoNAM-3 photodependence (dark then UV light) of activity, and association/dissociation kinetics (with and without UV light) were assessed in patch-clamp recordings of lifted whole cells 24–72 h post transfection (cells were not lifted for the 2 light cycles protocol, i.e., when “perfusion turned off” was written below current traces). Positively transfected cells were visualized by GFP fluorescence. The extracellular solution contained (in mM) 140 NaCl, 2.8 KCl, 1 CaCl2, 10 HEPES, 20 sucrose, and 0.01 DTPA (290–300 mOsm), pH adjusted to 7.3 using NaOH. […] Currents were sampled at 10 kHz and low-pass filtered at 2 kHz using an Axopatch 200B amplifier, a 1550B Digidata, and Clampex 10.6 (Molecular Devices). Agonists (100 μM glutamate and 100 μM glycine) were applied using a multibarrel solution exchanger (RSC 200; BioLogic). Recordings were performed at a holding potential of −60 mV and at room temperature.
Computer-controlled light pulses during electrophysiological recordings were provided from high power sensitive LEDs (CoolLED pE-4000: 4 channels each controlling 4 wavelengths from 365 to 770 nm). The LED port was directly coupled via a microscope adaptor to the fluorescence port of an inverted IX73 Olympus microscope. The output beam of the LED entry was directed toward the sample thanks to a mirror (Chroma) and applied to the center of the recording dish through a 10× objective (irradiance ∼4 mW/mm^2 for 365, 385, and 435 nm; ∼6.5 mW/mm^2 for 460 nm; ∼2 mW/mm^2 for 490 and 525 nm; ∼1.5 mW/mm^2 for 500 nm, and ∼4.5 mW/mm^2 for 550 and 580 nm) (Olympus, 0.30 N.A.). Light power was measured in the center of the recording dish plane with an optical power meter (1916-C, Newport) equipped with a calibrated UV/D detector, and irradiance was obtained upon dividing light power by the illuminated field of the microscope 10× objective (19 mm^2).
Data were collected and analyzed using pClamp 10.5 (Molecular Devices) and fitted using Sigmaplot 11.0 (SSPS). […]

[1] = 550 nm illumination from UV state

With `c1ccc(/N=N/c2ccc(CCNc3ccncc3)cc2)cc1` [OptoNAM-3, (E)-N-(4-(Phenyldiazenyl)phenethyl)pyridin-4-amine] the “inhibition of GluN1/GluN2B currents in HEK cells” value [1] was 58.559%, the “inhibition of GluN1/GluN2B currents in HEK cells” value (dark) was 76.928% and the “inhibition of GluN1/GluN2B currents in HEK cells” value (under 365 nm illumination) was 23.428%. For the same compound, the inhibition at 2 µM [1] was 59%, the inhibition at 2 µM (dark) was 77% and the inhibition at 2 µM (under 365 nm illumination) was 23%. The “tau off of inhibition relief under UV illumination” value (HEK cells, 365 nm) was 0.814 s, the “tau off of inhibition relief by washout in the dark” value (HEK cells, dark) was 30.520 s and the “Relative current (IOpto/I0)” value ([OptoNAM-3] 0.050 µM, HEK cells, 365 nm illumination) was 0.936. For the same compound, the “Relative current (IOpto/I0)” value ([OptoNAM-3] 0.050 µM, HEK cells, dark PSS (trans)) was 0.679, the “Relative current (IOpto/I0)” value ([OptoNAM-3] 0.125 µM, HEK cells, 365 nm illumination) was 0.926 and the “Relative current (IOpto/I0)” value ([OptoNAM-3] 0.125 µM, HEK cells, dark PSS (trans)) was 0.513. For the same compound, the “Relative current (IOpto/I0)” value ([OptoNAM-3] 0.300 µM, HEK cells, 365 nm illumination) was 0.848, the “Relative current (IOpto/I0)” value ([OptoNAM-3] 0.300 µM, HEK cells, dark PSS (trans)) was 0.435 and the “Relative current (IOpto/I0)” value ([OptoNAM-3] 0.500 µM, HEK cells, dark PSS (trans)) was 0.261. The “Relative current (IOpto/I0)” value ([OptoNAM-3] 1.000 µM, HEK cells, 365 nm illumination) was 0.722, the “Relative current (IOpto/I0)” value ([OptoNAM-3] 1.000 µM, HEK cells, dark PSS (trans)) was 0.205 and the “Relative current (IOpto/I0)” value ([OptoNAM-3] 1.500 µM, HEK cells, 365 nm illumination) was 0.713. The “Relative current (IOpto/I0)” value ([OptoNAM-3] 1.500 µM, HEK cells, dark PSS (trans)) was 0.181, the “Relative current (IOpto/I0)” value ([OptoNAM-3] 2.000 µM, HEK cells, 365 nm illumination) was 0.705 and the “Relative current (IOpto/I0)” value ([OptoNAM-3] 2.000 µM, HEK cells, dark PSS (trans)) was 0.166. The “Relative current (IOpto/I0)” value ([OptoNAM-3] 2.500 µM, HEK cells, 365 nm illumination) was 0.442, the “Relative current (IOpto/I0)” value ([OptoNAM-3] 2.500 µM, HEK cells, dark PSS (trans)) was 0.034 and the IC50 (cell illuminated at 365 nm, read-out: IC50 on GluN1/GluN2B in HEK cells illuminated at 365 nm) was 2950 nM and 3000 nM. It also gave an IC50 (dark, read-out: IC50 on GluN1/GluN2B in HEK cells in the dark) of 150 nM.
